Measurements taken from US10377773B2, “Isothiazolopyrimidinones, pyrazolopyrimidinones, and pyrrolopyrimidinones as ubiquitin-specific protease 7 inhibitors” (FORMA Therapeutics, Inc., priority 2015, dated 2019).

Biological target: T1, USP7 (Homo sapiens, UniProt Q93009)
T1 construct: USP7, construct USP7 (208-1102) 6*His, Viva Biotech; initiator Met (N); TEV site (C); 6*His (C); purchased Viva Biotech
Test: USP7 Assay A and B (Ubiquitin-Rhodamine 110 assay)
Assay type: biochemical
Conditions: Ub-Rh110 substrate 25 nM, read-out: USP7_IC50
Description: Each assay was performed in a final volume of 15 μL in assay buffer containing 20 mM Tris-HCl (pH 8.0, (1M Tris-HCl, pH 8.0 solution; Corning 46-031-CM)), 1 mM GSH (L-Glutathione reduced; Sigma #G4251), 0.03% BGG (0.22 μM filtered, Sigma, #G7516-25G), and 0.01% Triton X-100 (Sigma, #T9284-10L). Nanoliter quantities of either an 8-point or 10-point, 3-fold serial dilution in DMSO was pre-dispensed into assay plates (Perkin Elmer, ProxiPlate-384 F Plus, #6008269) for a final test concentration range of either 25 μM to 11 nM or 25 μM to 1.3 nM, respectively. The final concentration of the enzyme (USP7, construct USP7 (208-1102) 6*His, Viva Biotech) in the assay was 62.5 pM. Final substrate (Ub-Rh110; Ubiquitin-Rhodamine 110, R&D Systems #U-555) concentration was 25 nM with [Ub-Rh110]<<Km. 5 μL of 2× enzyme was added to the assay plates (pre-stamped with compound) and preincubated with USP7 for 30 min. 5 μL of 2×Ub-Rh110 was then added to assay plates. Plates were incubated stacked for 20 min at room temperature before 5 μL of stop solution (final concentration of 10 mM citric acid in assay buffer (Sigma, #251275-500G)). Fluorescence was read on the Envision (Excitation at 485 nm and Emission at 535 nm; Perkin Elmer) or on the PheraSTAR (Excitation at 485 nm and Emission at 535 nm; BMG Labtech).
Each assay was performed in a final volume of 20 μL in assay buffer containing 20 mM Tris-HCl (pH 8.0, (1M Tris-HCl, pH 8.0 solution; Corning 46-031-CM)), 2 mM CaCl2 (1M calcium chloride solution; Sigma #21114), 1 mM GSH (L-Glutathione reduced; Sigma #G4251), 0.01% Prionex (0.22 μM filtered, Sigma #G-0411), and 0.01% Triton X-100. Stock compound solutions were stored at −20° C. as 10 mM in DMSO. Up to 1 month prior to the assay, 2 mM test compounds were pre-dispensed into assay plates (Black, low volume; Corning #3820) and frozen at −20° C. Prestamped assay plates were allowed to warm to room temperature on the day of the assay. For the screen, 100 nL of 2 mM was pre-dispensed for a final screening concentration of 10 μM (DMSO(fc)=0.5%). For follow-up studies, 250 nL of an 8-point, 3-fold serial dilution in DMSO was pre-dispensed into assay plates for a final test concentration of 25 μM-11 nM (1.25c % DMSO final concentration). Unless otherwise indicated, all follow-up assays were run on triplecate plates. Enzyme (USP7, construct Met (208-1102)-TEV-6*His; Viva Q93009-1) concentration and incubation times were optimized for the maximal signal-to-background while maintaining initial velocity conditions at a fixed substrate concentration. The final concentration of the enzyme in the assay was either 75 pM or 250 pM. Final substrate (Ub-Rh110; Ubiquitin-Rhodamine 110, R&D Systems (biotechne)#U-555) concentration was 25 nM with [Ub-Rh110]<<Km. Compounds were either not preincubated or preincubated with USP7 between 30 to 120 min prior to the addition of 10 μL of 2×Ub-Rh110 to compound plates. Plates were incubated stacked for either 23 or 45 min at room temperature before fluorescence was read on the Envision (Excitation at 485 nm and Emission at 535 nm; Perkin Elmer) or on the PheraSTAR (Excitation at 485 nm and Emission at 535 nm; BMG Labtech).
Data from USP7 Assays A and B were reported as percent inhibition (inh) compared with control wells based on the following equation: % inh=1−((FLU−AveLow)/(AveHigh−AveLow)) where FLU=measured Fluorescence, AveLow=average Fluorescence of no enzyme control (n=16), and AveHigh=average Fluorescence of DMSO control (n=16). IC50 values were determined by curve fitting of the standard 4 parameter logistic fitting algorithm included in the Activity Base software package: IDBS XE Designer Model205. Data was fitted using the Levenburg Marquardt algorithm.

T1 sequence (Q93009 208-1102): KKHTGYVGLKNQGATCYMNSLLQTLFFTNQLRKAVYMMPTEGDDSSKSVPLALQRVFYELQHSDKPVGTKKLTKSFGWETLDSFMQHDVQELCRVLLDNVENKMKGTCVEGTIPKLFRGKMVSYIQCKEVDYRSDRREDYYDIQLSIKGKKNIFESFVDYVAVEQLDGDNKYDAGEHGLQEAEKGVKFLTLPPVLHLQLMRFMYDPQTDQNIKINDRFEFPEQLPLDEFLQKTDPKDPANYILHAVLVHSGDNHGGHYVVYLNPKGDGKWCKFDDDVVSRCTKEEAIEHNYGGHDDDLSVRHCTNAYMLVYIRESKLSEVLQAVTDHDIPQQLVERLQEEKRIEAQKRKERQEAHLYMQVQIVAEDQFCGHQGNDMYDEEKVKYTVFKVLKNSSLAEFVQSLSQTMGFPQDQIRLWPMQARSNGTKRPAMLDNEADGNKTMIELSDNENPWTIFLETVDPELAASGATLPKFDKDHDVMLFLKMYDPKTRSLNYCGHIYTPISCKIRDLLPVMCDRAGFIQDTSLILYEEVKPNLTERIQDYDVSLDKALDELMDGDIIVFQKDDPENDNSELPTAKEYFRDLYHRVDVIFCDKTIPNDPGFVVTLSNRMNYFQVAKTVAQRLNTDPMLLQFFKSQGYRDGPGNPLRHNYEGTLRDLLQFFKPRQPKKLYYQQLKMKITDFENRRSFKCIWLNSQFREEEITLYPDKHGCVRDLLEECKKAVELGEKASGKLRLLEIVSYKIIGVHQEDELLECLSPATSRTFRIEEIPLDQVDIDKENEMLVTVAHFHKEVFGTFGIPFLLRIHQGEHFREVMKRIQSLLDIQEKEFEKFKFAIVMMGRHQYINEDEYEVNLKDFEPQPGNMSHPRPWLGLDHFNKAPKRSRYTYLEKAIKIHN

SMILES | IC50 [nM]
C[C@H](CC(=O)N1CCC(O)(Cn2cnc3c(-c4ccccc4)nsc3c2=O)CC1)c1ccccc1 [Compound I-13, 6-({4-hydroxy-1-[(3R)-3-phenylbutanoyl]piperidin-4-yl}methyl)-3-phenyl-6H,7H-[1,2]thiazolo[4,5-d]pyrimidin-7-one] | 1000 to 10000
CN1CCN(c2ccc(C(=O)N3CCC(O)(Cn4cnc5c(-c6ccc(F)cc6)nsc5c4=O)CC3)nc2)CC1 [Compound I-10, 3-(4-fluorophenyl)-6-({4-hydroxy-1-[5-(4-methylpiperazin-1-yl)pyridine-2-carbonyl]piperidin-4-yl}methyl)-6H,7H-[1,2]thiazolo[4,5-d]pyrimidin-7-one] | > 10000
O=C(CCC(F)(F)F)N1CCC(O)(Cn2cnc3c(-c4ccc(F)cc4)nsc3c2=O)CC1 [Compound I-25, 3-(4-fluorophenyl)-6-{[4-hydroxy-1-(4,4,4-trifluorobutanoyl)piperidin-4-yl]methyl}-6H,7H-[1,2]thiazolo[4,5-d]pyrimidin-7-one] | > 10000
COc1ccc(C(=O)N2CCC(O)(Cn3cnc4c(-c5ccc(OC)cc5)n[nH]c4c3=O)CC2)cc1 [Compound I-21, 6-{[4-hydroxy-1-(4-methoxybenzoyl)piperidin-4-yl]methyl}-3-(4-methoxyphenyl)-1H,6H,7H-pyrazolo[4,3-d]pyrimidin-7-one] | 500 to 1000
COc1ccc(C(=O)N2CCC(O)(Cn3cnc4c(-c5ccccc5)nsc4c3=O)CC2)cc1 [Compound I-8, 6-{[4-hydroxy-1-(4-methoxybenzoyl)piperidin-4-yl]methyl}-3-phenyl-6H,7H-[1,2]thiazolo[4,5-d]pyrimidin-7-one] | 1000 to 10000
O=C(c1ccc(F)cc1)N1CCC(O)(Cn2cnc3c(-c4ccc(F)cc4)nsc3c2=O)CC1 [Compound I-30, 6-{[1-(4-fluorobenzoyl)-4-hydroxypiperidin-4-yl]methyl}-3-(4-fluorophenyl)-6H,7H-[1,2]thiazolo[4,5-d]pyrimidin-7-one] | > 10000
C[C@H](CC(=O)N1CCC(O)(Cn2cnc3c(-c4ccccc4)nsc3c2=O)CC1)n1cccn1 [Compound I-16, 6-({4-hydroxy-1-[(3R)-3-(1H-pyrazol-1-yl)butanoyl]piperidin-4-yl}methyl)-3-phenyl-6H,7H-[1,2]thiazolo[4,5-d]pyrimidin-7-one] | 1000 to 10000
O=C(c1ccc(F)cc1)N1CCC(O)(Cn2cnc3c(-c4ccc(CO)cc4)nsc3c2=O)CC1 [Compound I-23, 6-{[1-(4-fluorobenzoyl)-4-hydroxypiperidin-4-yl]methyl}-3-[4-(hydroxymethyl)phenyl]-6H,7H-[1,2]thiazolo[4,5-d]pyrimidin-7-one] | 1000 to 10000
CN(C)C(=O)N1CCC(O)(Cn2cnc3c(-c4ccc(NCCN5CCCCC5)cc4)nsc3c2=O)CC1 [Compound I-26, 4-hydroxy-N,N-dimethyl-4-{[7-oxo-3-(4-{[2-(piperidin-1-yl)ethyl]amino}phenyl)-6H,7H-[1,2]thiazolo[4,5-d]pyrimidin-6-yl]methyl}piperidine-1-carboxamide] | 1000 to 10000
O=C1NCCN1CCOc1cccc(-c2nsc3c(=O)n(CC4(O)CCN(C(=O)C5CC5)CC4)cnc23)c1 [Compound I-27, 1-[2-(3-{6-[(1-cyclopropanecarbonyl-4-hydroxypiperidin-4-yl)methyl]-7-oxo-6H,7H-[1,2]thiazolo[4,5-d]pyrimidin-3-yl}phenoxy)ethyl]imidazolidin-2-one] | 1000 to 10000
COc1ccc(C(=O)N2CCC(O)(Cn3cnc4c(-c5ccc(OC)cc5)nsc4c3=O)CC2)cc1 [Compound I-31, 6-{[4-hydroxy-1-(4-methoxybenzoyl)piperidin-4-yl]methyl}-3-(4-methoxyphenyl)-6H,7H-[1,2]thiazolo[4,5-d]pyrimidin-7-one] | 1000 to 10000
O=C(c1ccc(F)cc1)N1CCC(O)(Cn2cnc3c(-c4ccccc4)nsc3c2=O)CC1 [Compound I-1, 6-{[1-(4-fluorobenzoyl)-4-hydroxypiperidin-4-yl]methyl}-3-phenyl-6H,7H-[1,2]thiazolo[4,5-d]pyrimidin-7-one] | > 10000
O=C(CC(c1ccccc1)C(F)F)N1CCC(O)(Cn2cnc3c(-c4ccccc4)nsc3c2=O)CC1 (stereo not shown) [Compound I-17, 6-{[1-(4,4-difluoro-3-phenylbutanoyl)-4-hydroxypiperidin-4-yl]methyl}-3-phenyl-6H,7H-[1,2]thiazolo[4,5-d]pyrimidin-7-one] | 1000 to 10000
O=C(c1ccccc1)N1CCC(O)(Cn2cnc3c(-c4ccccc4)n[nH]c3c2=O)CC1 [Compound I-29, 6-[(1-benzoyl-4-hydroxypiperidin-4-yl)methyl]-3-phenyl-1H,6H,7H-pyrazolo[4,3-d]pyrimidin-7-one] | 500 to 1000
CC(CC(=O)N1CCC(O)(Cn2cnc3c(-c4ccccc4)nsc3c2=O)CC1)n1cccn1 (stereo not shown) [Compound I-14, 6-({4-hydroxy-1-[3-(1H-pyrazol-1-yl)butanoyl]piperidin-4-yl}methyl)-3-phenyl-6H,7H-[1,2]thiazolo[4,5-d]pyrimidin-7-one] | 1000 to 10000
O=C(c1ccc(F)cc1)N1CCC(O)(Cn2cnc3c(-c4ccc(F)cc4)n[nH]c3c2=O)CC1 [Compound I-5, 6-{[1-(4-fluorobenzoyl)-4-hydroxypiperidin-4-yl]methyl}-3-(4-fluorophenyl)-1H,6H,7H-pyrazolo[4,3-d]pyrimidin-7-one] | 500 to 1000
C[C@@H](CC(=O)N1CCC(O)(Cn2cnc3c(-c4ccccc4)nsc3c2=O)CC1)c1ccccc1 [Compound I-12, 6-({4-hydroxy-1-[(3 S)-3-phenylbutanoyl]piperidin-4-yl}methyl)-3-phenyl-6H,7H-[1,2]thiazolo[4,5-d]pyrimidin-7-one] | < 500
CC(CC(=O)N1CCC(O)(Cn2cnc3c(-c4ccccc4)nsc3c2=O)CC1)c1ccccc1 (stereo not shown) [Compound I-11, 6-{[4-hydroxy-1-(3-phenylbutanoyl)piperidin-4-yl]methyl}-3-phenyl-6H,7H-[1,2]thiazolo[4,5-d]pyrimidin-7-one] | 500 to 1000
COc1ccc(C(=O)N2CCC(O)(Cn3cnc4c(-c5ccccc5)n[nH]c4c3=O)CC2)cc1 [Compound I-7, 6-{[4-hydroxy-1-(4-methoxybenzoyl)piperidin-4-yl]methyl}-3-phenyl-1H,6H,7H-pyrazolo[4,3-d]pyrimidin-7-one] | 1000 to 10000
COc1ccc(C(=O)N2CCC(O)(Cn3cnc4c(-c5ccc(F)cc5)nsc4c3=O)CC2)cc1 [Compound I-3, 3-(4-fluorophenyl)-6-{[4-hydroxy-1-(4-methoxybenzoyl)piperidin-4-yl]methyl}-6H,7H-[1,2]thiazolo[4,5-d]pyrimidin-7-one] | 1000 to 10000
C[C@@H](CC(=O)N1CCC(O)(Cn2cnc3c(-c4ccccc4)nsc3c2=O)CC1)n1cccn1 [Compound I-15, 6-({4-hydroxy-1-[(3 S)-3-(1H-pyrazol-1-yl)butanoyl]piperidin-4-yl}methyl)-3-phenyl-6H,7H-[1,2]thiazolo[4,5-d]pyrimidin-7-one] | 1000 to 10000
COc1ccc(C(=O)N2CCC(O)(Cn3cnc4c(-c5ccc(CO)cc5)nsc4c3=O)CC2)cc1 [Compound I-24, 6-{[4-hydroxy-1-(4-methoxybenzoyl)piperidin-4-yl]methyl}-3-[4-(hydroxymethyl)phenyl]-6H,7H-[1,2]thiazolo[4,5-d]pyrimidin-7-one] | 1000 to 10000
